41 compounds from US20140179664A1, “Heterocyclyl Pyrimidine Analogues As JAK Inhibitors” (Cellzome Limited, priority 2011, published 2014) can be followed below.

In this test the target is T1, JAK3 (Homo sapiens, UniProt P52333).
T1 construct: endogenous in cells; host or cells: Molt4 (ATCC CRL-1582) and Ramos (ATCC CRL-1596), mixed lysate 1:2
T1 sequence (P52333 1-1124): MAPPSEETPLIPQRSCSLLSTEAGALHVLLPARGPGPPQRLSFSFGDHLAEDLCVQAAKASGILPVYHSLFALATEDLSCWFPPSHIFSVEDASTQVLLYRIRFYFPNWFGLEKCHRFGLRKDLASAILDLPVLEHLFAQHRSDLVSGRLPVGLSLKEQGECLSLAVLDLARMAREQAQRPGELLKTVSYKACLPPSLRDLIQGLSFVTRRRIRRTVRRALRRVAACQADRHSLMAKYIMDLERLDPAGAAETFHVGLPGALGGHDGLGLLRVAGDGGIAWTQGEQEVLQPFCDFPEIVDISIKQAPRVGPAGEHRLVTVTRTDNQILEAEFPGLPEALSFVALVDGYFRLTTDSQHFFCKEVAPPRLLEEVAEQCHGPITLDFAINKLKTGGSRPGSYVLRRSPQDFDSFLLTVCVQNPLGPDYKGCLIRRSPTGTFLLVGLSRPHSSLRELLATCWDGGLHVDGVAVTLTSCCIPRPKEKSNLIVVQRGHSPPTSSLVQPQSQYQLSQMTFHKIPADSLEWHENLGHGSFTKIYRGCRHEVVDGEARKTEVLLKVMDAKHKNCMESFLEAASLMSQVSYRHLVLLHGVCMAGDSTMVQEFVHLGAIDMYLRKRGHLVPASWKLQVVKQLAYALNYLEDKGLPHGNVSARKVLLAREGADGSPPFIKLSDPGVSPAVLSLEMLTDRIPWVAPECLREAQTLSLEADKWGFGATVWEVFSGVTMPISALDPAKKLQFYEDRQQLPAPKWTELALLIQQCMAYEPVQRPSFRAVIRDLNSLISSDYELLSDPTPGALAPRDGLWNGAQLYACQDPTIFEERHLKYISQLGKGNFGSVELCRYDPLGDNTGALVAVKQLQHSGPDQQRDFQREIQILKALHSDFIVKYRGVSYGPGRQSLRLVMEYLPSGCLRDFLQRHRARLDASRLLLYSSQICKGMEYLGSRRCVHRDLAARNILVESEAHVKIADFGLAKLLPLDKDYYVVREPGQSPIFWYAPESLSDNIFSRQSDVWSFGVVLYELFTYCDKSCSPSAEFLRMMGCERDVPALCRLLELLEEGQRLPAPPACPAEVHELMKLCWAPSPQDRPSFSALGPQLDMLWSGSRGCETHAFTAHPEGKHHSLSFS
Kind of test: Kinobeads assay, JAK3. The test is classed as binding. The settings on record: mixed Molt4/Ramos lysate, read-out: Inhibition values (IC50) JAK3. The protocol: The compounds of the present invention as described in the previous examples were tested in a Kinobeads™ assay as described for ZAP-70 (WO-A 2007/137867). Briefly, test compounds (at various concentrations) and the affinity matrix with the immobilized aminopyrido-pyrimidine ligand 24 were added to cell lysate aliquots and allowed to bind to the proteins in the lysate sample. After the incubation time the beads with captured proteins were separated from the lysate. Bound proteins were then eluted and the presence of JAK1, JAK2, JAK3 and TYK2 was detected and quantified using specific antibodies in a dot blot procedure and the Odyssey infrared detection system. Dose response curves for individual kinases were generated and IC50 values calculated. Kinobeads™ assays for ZAP-70 (WO-A 2007/137867) and for kinase selectivity profiling (WO-A 2006/134056) have been previously described.
The affinity matrix was washed two times with 15 mL of lx DP buffer containing 0.2% NP40 (IGEPAL® CA-630, Sigma, #13021) and then resuspended in 1×DP buffer containing 0.2% NP40 (3% beads slurry).
5×DP buffer: 250 mM Tris-HCl pH 7.4, 25% Glycerol, 7.5 mM MgCl2, 750 mM NaCl, 5 mM Na3VO4; filter the 5×DP buffer through a 0.22 μm filter and store in aliquots at −80° C. The 5×DP buffer is diluted with H2O to 1×DP buffer containing 1 mM DTT and 25 mM NaF.
Stock solutions of test compounds were prepared in DMSO. In a 96 well plate […] solution of diluted test compounds at 5 mM in DMSO were prepared. Starting with this solution a 1:3 dilution series (9 steps) was prepared. For control experiments (no test compound) a buffer containing 2% DMSO was used.
Molt4 cells (ATCC catalogue number CRL-1582) and Ramos cells (ATCC catalogue number CRL-1596) were grown in 1 L Spinner flasks (Integra Biosciences, #182101) in suspension in RPMI 1640 medium (Invitrogen, #21875-034) supplemented with 10% Fetal Bovine Serum (Invitrogen) at a density between 0.15×10^6 and 1.2×10^6 cells/mL. Cells were harvested by centrifugation, washed once with 1×PBS buffer (Invitrogen, #14190-094) and cell pellets were frozen in liquid nitrogen and subsequently stored at −80° C. Cells were homogenized in a Potter S homogenizer in lysis buffer: 50 mM Tris-HCl, 0.8% NP40, 5% glycerol, 150 mM NaCl, 1.5 mM MgCl2, 25 mM NaF, 1 mM sodium vanadate, 1 mM DTT, pH 7.5. One complete EDTA-free tablet (protease inhibitor cocktail, Roche Diagnostics, 1873580) per 25 mL buffer was added. The material was dounced 10 times using a mechanized POTTER S, transferred to 50 mL falcon tubes, incubated for 30 minutes on ice and spun down for 10 minutes at 20,000 g at 4° C. (10,000 rpm in Sorvall SLA600, precooled). The supernatant was transferred to an ultracentrifuge (UZ)-polycarbonate tube (Beckmann, 355654) and spun for 1 hour at 100.000 g at 4° C. (33.500 rpm in Ti50.2, precooled). The supernatant was transferred again to a fresh 50 mL falcon tube, the protein concentration was determined by a Bradford assay (BioRad) and samples containing 50 mg of protein per aliquot were prepared. The samples were immediately used for experiments or frozen in liquid nitrogen and stored frozen at −80° C.
Cell lysate (approximately 50 mg protein per plate) was thawed in a water bath at room temperature and then stored on ice. To the thawed cell lysate 1×DP 0.8% NP40 buffer containing protease inhibitors (1 tablet for 25 mL buffer; EDTA-free protease inhibitor cocktail; Roche Diagnostics 1873580) was added in order to reach a final protein concentration of 10 mg/mL total protein. The diluted cell lysate was stored on ice. Mixed Molt4/Ramos lysate was prepared by combining one volume of Molt4 lysate and two volumes of Ramos lysate (ratio 1:2).
To a 96 well filter plate (Multiscreen HTS, BV Filter Plates, Millipore #MSBVN1250) were added per well: 100 μL affinity matrix (3% beads slurry), […], of compound solution, and 50 μL of diluted lysate. […]

The structures appear in SMILES notation. pIC50: −log10 of the molar value.

As for `Cn1cc(Nc2ncc(Cl)c(NC(CO)c3ccccc3Cl)n2)cn1` (centres unmarked) [Compound 117], the pIC50 (in general, −log10 of the IC50, conventionally taken in molar units) was over 7.00.

Consider `NC(=O)Cn1cc(Nc2ncc(Cl)c(NC(CO)c3ccccc3Cl)n2)cn1` (centres unmarked) [Compound 118], for which the pIC50 is over 7.00.

For the compound `CNC(=O)Cn1cc(Nc2ncc(Cl)c(NC(CO)c3ccccc3Cl)n2)cn1` (centres unmarked) [Compound 119], the pIC50 is over 7.00.

For `OCCn1cc(Nc2ncc(Cl)c(NC(CO)c3ccccc3Cl)n2)cn1` (centres unmarked) [Compound 120], the pIC50 is over 7.00.

Turning to `Cn1cc(Nc2ncc(Cl)c(NC(CO)c3cc(F)cc(F)c3)n2)cn1` (centres unmarked) [Compound 121], the pIC50 is over 7.00.

In the case of `OCCn1cc(Nc2ncc(Cl)c(NC(CO)c3cc(F)cc(F)c3)n2)cn1` (centres unmarked) [Compound 122], the pIC50 is over 7.00.

As to `CNC(=O)Cn1cc(Nc2ncc(Cl)c(NC(CO)c3cc(F)cc(F)c3)n2)cn1` (centres unmarked) [Compound 123], the pIC50 is over 7.00.

As for `Cn1cc(Nc2ncc(Cl)c(NC(CO)c3cccc(N4CCOCC4=O)c3)n2)cn1` (centres unmarked) [Compound 124], the pIC50 was over 7.00.

For `CCC(Nc1nc(Nc2cnn(C)c2)ncc1Cl)c1ccccc1F` (centres unmarked) [Compound 125], the pIC50 is 6.00 to 7.00.

With `CCC(Nc1nc(Nc2cnn(CC(N)=O)c2)ncc1Cl)c1ccccc1F` (centres unmarked) [Compound 126], the pIC50 is 6.00 to 7.00.

`CN(C)C(=O)C(Nc1nc(Nc2cnn(CCO)c2)ncc1Cl)c1ccccc1F` (centres unmarked) [Compound 127]: the negative-log IC50 (pIC50) was 6.00 to 7.00.

On to `O=C(NCC(F)(F)F)C(Nc1nc(Nc2cnn(CCO)c2)ncc1Cl)c1ccccc1F` (centres unmarked) [Compound 128], for which the pIC50 is 6.00 to 7.00.

For the compound `Cn1cc(Nc2ncc(Cl)c(NC(CO)c3cc(F)ccc3F)n2)cn1` (centres unmarked) [Compound 129], the pIC50 was over 7.00.

For the compound `CNC(=O)Cn1cc(Nc2ncc(Cl)c(NC(CO)c3cc(F)ccc3F)n2)cn1` (centres unmarked) [Compound 130], the negative logarithm of the IC50 (pIC50) is over 7.00.

Take `CNC(=O)Cn1cc(Nc2ncc(Cl)c(NC(CO)c3ccccc3C(F)(F)F)n2)cn1` (centres unmarked) [Compound 131]: the negative-log IC50 (pIC50) was 6.00 to 7.00.

As to `NC(=O)Cn1cc(Nc2ncc(Cl)c(NC(CO)c3cc(F)ccc3F)n2)cn1` (centres unmarked) [Compound 132], the pIC50 was over 7.00.

With `CNC(=O)Cn1cc(Nc2ncc(C)c(N[C@H](CO)c3ccccc3)n2)cn1` [Compound 133], the pIC50 is over 7.00.

In the case of `Cc1cnc(Nc2cnn(CC(=O)N(C)C)c2)nc1N[C@H](CO)c1ccccc1` [Compound 134], the pIC50 was over 7.00.

Regarding `CN1CCC(n2cc(Nc3ncc(Cl)c(N[C@H](CO)c4ccccc4)n3)cn2)C1=O` (some centres unmarked) [Compound 135], the negative logarithm of the IC50 (pIC50) is over 7.00.

For `Cn1cc(Nc2ncc(Cl)c(N[C@H](CO)c3cccc(-c4cnn(C)c4)c3)n2)cn1` [Compound 136], the pIC50 was 6.00 to 7.00.

As to `Cn1cc(Nc2ncc(Cl)c(N[C@H](CO)c3cc(F)cc(-c4cnn(C)c4)c3)n2)cn1` [Compound 137], the pIC50 was 6.00 to 7.00.

For the compound `Cn1cc(Nc2ncc(Cl)c(N[C@H](CO)c3cccc(N4CCOCC4=O)c3)n2)cn1` [Compound 138], the pIC50 is over 7.00.

Regarding `Cn1cc(Nc2ncc(Cl)c(N[C@H](CO)c3cc(F)ccc3F)n2)cn1` [Compound 139], the pIC50 is over 7.00.

As for `NC(=O)Cn1cc(Nc2ncc(Cl)c(N[C@H](CO)c3cc(F)ccc3F)n2)cn1` [Compound 140], the pIC50 is over 7.00.

In the case of `CNC(=O)Cn1cc(Nc2ncc(Cl)c(N[C@H](CO)c3cc(F)ccc3F)n2)cn1` [Compound 141], the pIC50 was over 7.00.

Consider `Cn1cc(Nc2ncc(Cl)c(N[C@H](CO)c3cc(F)cc(F)c3)n2)cn1` [Compound 142], for which the pIC50 was over 7.00.

`OCCn1cc(Nc2ncc(Cl)c(N[C@H](CO)c3cc(F)cc(F)c3)n2)cn1` [Compound 143]: the pIC50 is over 7.00.

Regarding `NC(=O)Cn1cc(Nc2ncc(Cl)c(N[C@H](CO)c3cc(F)cc(F)c3)n2)cn1` [Compound 144], the pIC50 is over 7.00.

On to `CNC(=O)Cn1cc(Nc2ncc(Cl)c(N[C@H](CO)c3cc(F)cc(F)c3)n2)cn1` [Compound 145], for which the pIC50 is over 7.00.

Take `Cn1cc(Nc2ncc(F)c(N[C@H](CO)c3cc(F)ccc3F)n2)cn1` [Compound 146]: the negative logarithm of the IC50 (pIC50) is over 7.00.

`OCCn1cc(Nc2ncc(F)c(N[C@H](CO)c3cc(F)ccc3F)n2)cn1` [Compound 147]: the pIC50 was over 7.00.

Turning to `CNC(=O)Cn1cc(Nc2ncc(F)c(N[C@H](CO)c3cc(F)ccc3F)n2)cn1` [Compound 148], the pIC50 is over 7.00.

As to `Cc1cnc(Nc2cnn(C)c2)nc1N[C@H](CO)c1cccc(-c2cnn(C)c2)c1` [Compound 149], the negative logarithm of the IC50 (pIC50) was 6.00 to 7.00.

On to `Cn1cc(Nc2ncc(F)c(N[C@H](CO)c3cc(F)cc(-c4cnn(C)c4)c3)n2)cn1` [Compound 150], for which the pIC50 was 6.00 to 7.00.

Turning to `Cn1cc(-c2cccc([C@@H](CO)Nc3nc(Nc4cnn(CCO)c4)ncc3Cl)c2)cn1` [Compound 151], the pIC50 is 6.00 to 7.00.

As to `Cn1cc(-c2cc(F)cc([C@@H](CO)Nc3nc(Nc4cnn(CCO)c4)ncc3Cl)c2)cn1` [Compound 152], the pIC50 is over 7.00.

Turning to `Cn1cc(-c2cc(F)cc([C@@H](CO)Nc3nc(Nc4cnn(CCO)c4)ncc3F)c2)cn1` [Compound 153], the negative logarithm of the IC50 (pIC50) is 6.00 to 7.00.

Consider `CNC(=O)Cn1cc(Nc2ncc(Cl)c(N[C@H](CO)c3cccc(-c4cnn(C)c4)c3)n2)cn1` [Compound 154], for which the negative-log IC50 (pIC50) is over 7.00.

For `CNC(=O)Cn1cc(Nc2ncc(F)c(N[C@H](CO)c3cccc(-c4cnn(C)c4)c3)n2)cn1` [Compound 155], the pIC50 was 6.00 to 7.00.

With `CNC(=O)Cn1cc(Nc2ncc(Cl)c(N[C@H](CO)c3cc(F)cc(-c4cnn(C)c4)c3)n2)cn1` [Compound 156], the pIC50 was over 7.00.

Consider `CNC(=O)Cn1cc(Nc2ncc(F)c(N[C@H](CO)c3cc(F)cc(-c4cnn(C)c4)c3)n2)cn1` [Compound 157], for which the pIC50 was 6.00 to 7.00.
